Laboratory results: ChEMBL document CHEMBL3102719, “Ligands of the neuropeptide Y Y2 receptor” (Bioorg Med Chem Lett, 2014)
Non-standard residues stand in square brackets, D forms with d. Residues, ends and D or L forms follow the SMILES beside them. *: point of attachment. Palmitoyl = CCCCCCCCCCCCCCCC(=O)*; Ahx = NCCCCCC(=O)O

Columns and labels:
[1] = target: T1, Neuropeptide Y receptor type 2 (Homo sapiens, UniProt P49146); assay: Displacement of [125I]-PYY from human NPYY2 receptor
T1 sequence (P49146 whole entry): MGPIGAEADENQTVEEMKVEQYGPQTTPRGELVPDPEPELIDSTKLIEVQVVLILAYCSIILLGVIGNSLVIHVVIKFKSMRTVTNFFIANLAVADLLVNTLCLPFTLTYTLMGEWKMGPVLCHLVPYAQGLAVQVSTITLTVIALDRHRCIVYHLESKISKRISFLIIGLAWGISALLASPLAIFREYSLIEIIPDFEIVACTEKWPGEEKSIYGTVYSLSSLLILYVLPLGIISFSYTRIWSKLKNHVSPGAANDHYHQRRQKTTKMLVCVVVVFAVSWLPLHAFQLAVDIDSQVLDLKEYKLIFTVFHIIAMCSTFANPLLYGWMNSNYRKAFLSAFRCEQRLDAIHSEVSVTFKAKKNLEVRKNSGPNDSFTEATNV

[2] = target: T1, Neuropeptide Y receptor type 2; assay: Binding affinity to NPYY2 receptor (unknown origin)
[3] = target: T2, Neuropeptide Y receptor type 2 (Homo sapiens) (UniProt P49146); assay: Antagonist activity at NPYY2 receptor (unknown origin)
T2 sequence (whole entry): T1 sequence (P49146 whole entry)

[4] = Bioavailability in rat at 10 mg/kg, sc; format: ADME, organism-based; details: in vivo
[5] = Half life in rat at 10 mg/kg, sc; format: ADME, organism-based; set-up: dose 10 mg/kg, route subcutaneous; details: in vivo
[6] = Cmax in rat at 10 mg/kg, sc; format: ADME, organism-based; set-up: dose 10 mg/kg, route subcutaneous; details: in vivo
[7] = organism: Homo sapiens; assay: Selectivity ratio of NPYY1 receptor (unknown origin) to NPYY2 receptor (unknown origin)
[8] = organism: Homo sapiens; assay: Selectivity ratio of NPYY5 receptor (unknown origin) to NPYY2 receptor (unknown origin)
[9] = organism: Homo sapiens; assay: Selectivity ratio of NPYY4 receptor (unknown origin) to NPYY2 receptor (unknown origin)
[10] = Oral bioavailability in rat at 10 mg/kg; format: ADME, organism-based; details: in vivo
[11] = target: T1, Neuropeptide Y receptor type 2; assay: Binding affinity to NPYY2 receptor (unknown origin) preincubated for 20 mins
[12] = target: T1, Neuropeptide Y receptor type 2; assay: Displacement of [125I]-PYY from NPYY2 receptor (unknown origin)
[13] = target: T3, Neuropeptide Y receptor type 5 (Homo sapiens, UniProt Q15761); assay: Binding affinity to NPYY5 receptor (unknown origin)
T3 sequence (Q15761 whole entry): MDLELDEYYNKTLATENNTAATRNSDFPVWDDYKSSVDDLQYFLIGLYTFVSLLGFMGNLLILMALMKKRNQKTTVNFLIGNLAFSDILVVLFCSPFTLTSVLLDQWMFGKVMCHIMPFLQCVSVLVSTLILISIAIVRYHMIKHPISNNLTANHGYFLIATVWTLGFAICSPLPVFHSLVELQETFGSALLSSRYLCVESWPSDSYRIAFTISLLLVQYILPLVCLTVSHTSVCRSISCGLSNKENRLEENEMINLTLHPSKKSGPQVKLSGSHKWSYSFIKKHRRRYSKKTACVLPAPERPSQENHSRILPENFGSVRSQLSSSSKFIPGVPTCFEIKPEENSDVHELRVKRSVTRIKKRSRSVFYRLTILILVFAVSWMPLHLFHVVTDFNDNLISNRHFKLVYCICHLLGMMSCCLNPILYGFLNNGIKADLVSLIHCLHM

[14] = target: Mu-type opioid receptor (Homo sapiens, UniProt P35372); assay: Binding affinity to mu opioid receptor (unknown origin)
[15] = target: Kappa-type opioid receptor (Homo sapiens, UniProt P41145); assay: Binding affinity to kappa opioid receptor (unknown origin)
[16] = target: T4, Alpha-1A adrenergic receptor (Homo sapiens, UniProt P35348); assay: Binding affinity to adrenergic alpha1A receptor (unknown origin)
T4 sequence (P35348 whole entry): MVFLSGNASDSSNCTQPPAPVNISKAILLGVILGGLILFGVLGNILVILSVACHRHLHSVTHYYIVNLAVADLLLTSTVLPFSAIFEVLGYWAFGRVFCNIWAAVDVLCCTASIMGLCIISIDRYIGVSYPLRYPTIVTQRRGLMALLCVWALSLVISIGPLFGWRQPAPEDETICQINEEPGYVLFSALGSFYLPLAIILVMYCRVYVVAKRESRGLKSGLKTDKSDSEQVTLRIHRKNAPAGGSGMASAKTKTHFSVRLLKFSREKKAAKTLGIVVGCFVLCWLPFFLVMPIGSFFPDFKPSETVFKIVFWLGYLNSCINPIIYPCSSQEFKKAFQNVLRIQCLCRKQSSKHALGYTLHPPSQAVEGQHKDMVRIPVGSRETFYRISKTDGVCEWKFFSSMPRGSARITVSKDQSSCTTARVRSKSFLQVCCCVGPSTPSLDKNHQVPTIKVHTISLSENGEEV

[17] = system: Mus musculus; assay: Anticonvulsant activity in ip dosed mouse assessed as protection against 6 Hz psychomotor seizure; format: functional

Sequence of Mu-type opioid receptor (P35372 whole entry): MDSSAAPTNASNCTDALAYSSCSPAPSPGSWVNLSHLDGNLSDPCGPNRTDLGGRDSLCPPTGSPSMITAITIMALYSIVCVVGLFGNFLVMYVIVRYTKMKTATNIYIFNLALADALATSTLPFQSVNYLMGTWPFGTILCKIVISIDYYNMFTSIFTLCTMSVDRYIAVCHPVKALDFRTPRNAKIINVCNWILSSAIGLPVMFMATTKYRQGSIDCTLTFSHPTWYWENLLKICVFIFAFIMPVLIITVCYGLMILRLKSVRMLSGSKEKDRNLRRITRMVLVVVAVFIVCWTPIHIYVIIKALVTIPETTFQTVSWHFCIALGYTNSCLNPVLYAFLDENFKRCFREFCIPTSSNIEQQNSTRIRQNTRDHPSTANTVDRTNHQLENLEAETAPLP
Sequence of Kappa-type opioid receptor (P41145 whole entry): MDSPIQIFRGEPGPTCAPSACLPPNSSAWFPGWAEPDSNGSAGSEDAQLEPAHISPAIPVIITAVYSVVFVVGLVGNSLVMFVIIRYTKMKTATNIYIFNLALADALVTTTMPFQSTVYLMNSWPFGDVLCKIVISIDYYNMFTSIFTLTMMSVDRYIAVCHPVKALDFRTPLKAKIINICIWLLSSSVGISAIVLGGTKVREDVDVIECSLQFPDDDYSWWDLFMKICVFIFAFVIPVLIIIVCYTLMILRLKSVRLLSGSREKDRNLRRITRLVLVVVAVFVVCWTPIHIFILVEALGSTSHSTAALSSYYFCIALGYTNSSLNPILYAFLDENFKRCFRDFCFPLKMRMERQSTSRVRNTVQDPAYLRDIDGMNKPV

Q: With `CCC(CC)C(=O)Nc1ccc(N2CCN(C(c3ccccc3)c3ncccn3)CC2)c(F)c1` (stereo not given) as the compound, how does the IC50 [1] read?
A: 33 nM

Q: Which Ki [2] does the source give for `CCCCCCCCCCCCCCCC(=O)NCCCC[C@H](NC(=O)[C@H](CCCCN)NC(=O)[C@H](CCCCN)NC(=O)[C@H](Cc1ccc(O)cc1)NC(C)=O)C(=O)NCCCCCC(=O)N[C@@H](C)C(=O)N[C@@H](CCCN=C(N)N)C(=O)N[C@@H](Cc1cnc[nH]1)C(=O)N[C@@H](Cc1ccc(O)cc1)C(=O)N[C@H](C(=O)N[C@@H](CC(N)=O)C(=O)N[C@@H](CC(C)C)C(=O)N[C@H](C(=O)N[C@H](C(=O)N[C@@H](CCCN=C(N)N)C(=O)N[C@@H](CCC(N)=O)C(=O)N[C@@H](CCCN=C(N)N)C(=O)N[C@@H](Cc1ccc(O)cc1)C(N)=O)[C@@H](C)O)[C@@H](C)CC)[C@@H](C)CC` (Ac-YKKK(Palmitoyl)[Ahx]ARHYINLITRQRY-NH2) here?
A: 26.1 nM

Q: For `CCC(CC)C(=O)Nc1ccc(N2CCN(C(c3ccccc3)c3nc(C)no3)CC2)c(F)c1` (stereo not given), which pKb [3] is on record?
A: 7.4

Q: Which results are given for `CCN(CC)C(=O)C(c1ccccc1)N1CCN(c2ccc(NC(=O)c3ccccc3-c3cccnc3)cc2F)CC1` (stereo not given)?
A: bioavailability [4]: 100%; half-life [5]: 49.8 min; Cmax [6]: 4.35 µM; Selectivity ratio [7]: > 100; Selectivity ratio [8]: > 100; pKb [3]: 8.04; Selectivity ratio [9]: > 100; bioavailability [10]: 6%

Q: Which IC50 [1] does the source give for `CCN(CC)C(=O)C(c1ccccc1)N1CCN(c2ccc(-c3c(C)noc3C)cc2F)CC1` (stereo not given) here?
A: 10000 nM

Q: With `CCc1nc(C(c2ccccc2)N2CCN(c3ccc(NC(=O)C(CC)CC)cc3F)CC2)no1` (stereo not given) as the compound, how does the IC50 [1] read?
A: 150 nM

Q: With `CCC(CC)C(=O)Nc1ccc(N2CCN(C(c3ccccc3)c3nc(C(C)C)no3)CC2)c(F)c1` (stereo not given) as the compound, how does the IC50 [1] read?
A: 170 nM

Q: With `CCC(=O)NCCNC(=O)CCCC(=O)NC(=N)NCCC[C@H](NC(=O)CC1(CC(=O)N2CCN(C3c4ccccc4NC(=O)c4ccccc43)CC2)CCCC1)C(=O)NCCn1c(=O)n(-c2ccccc2)n(-c2ccccc2)c1=O` (stereo not given in full) as the compound, how does the Ki [11] read?
A: 9.9 nM

Q: For `CC(=O)N1CCc2ccc(N(C/C=C\c3ccccc3)C3CCN(Cc4ccccc4)CC3)cc21`, which IC50 [1] is on record?
A: 22000 nM

Q: With `CCC(CC)C(=O)Nc1ccc(N2CCN(C(C(=O)N(CC)CC)c3ccc(Cl)cc3)CC2)c(F)c1` (stereo not given) as the compound, how does the IC50 [1] read?
A: 100 nM

Q: With `CCC(CC)C(=O)Nc1ccc(N2CCN(C(c3cccc(F)c3)c3ncco3)CC2)c(C#N)c1` (stereo not given) as the compound, how does the pKb [3] read?
A: 7.9

Q: For `CCC(CC)C(=O)Nc1ccc(N2CCN(C(C(=O)N(CC)CC)c3ccc(O)cc3)CC2)c(F)c1` (stereo not given), which IC50 [1] is on record?
A: 100 nM

Q: For `CN(C)CCCN(C(=O)c1cc2ccccc2s1)c1ccccc1Cc1ccccc1`, which IC50 [12] is on record?
A: 450 nM

Q: For `CCC(CC)C(=O)Nc1ccc(N2CCN(C(c3ccccc3)c3cc(C)no3)CC2)c(F)c1` (stereo not given), which IC50 [1] is on record?
A: 38 nM

Q: What about the pKb [3] of the same compound?
A: 7.5

Q: Which IC50 [1] does the source give for `CCN(CC)C(=O)C(c1ccccc1)N1CCN(c2ccc(-c3cc(=O)n(C(C)C)[nH]3)cc2F)CC1` (stereo not given) here?
A: 340 nM

Q: For `CN(C)CCCN(C(=O)[C@H]1C[C@@H]1c1ccccc1)c1ccccc1SCc1ccccc1` (relative stereo), which IC50 [12] is on record?
A: 3700 nM

Q: For Ac-LRHYLNLLTRQRY-NH2, which Ki [13] is on record?
A: > 1000 nM

Q: For `CCC(CC)C(=O)Nc1ccc(N2CCN(C(c3ccccc3)c3nc(-c4ccccc4)no3)CC2)c(F)c1` (stereo not given), which IC50 [1] is on record?
A: 720 nM

Q: Which pKb [3] does the source give for `CCc1noc(C(c2ccccc2)N2CCN(c3ccc(NC(=O)C(CC)CC)cc3F)CC2)n1` (stereo not given) here?
A: 7.45

Q: For `CCN(CC)C(=O)C(c1ccccc1)N1CCN(c2ccc(-c3cccnc3)cc2F)CC1` (stereo not given), which IC50 [1] is on record?
A: 740 nM

Q: With `CC(=O)N1CCc2ccc(N(CC#Cc3ccccc3)C3CCN(Cc4ccccc4)CC3)cc21` as the compound, how does the IC50 [1] read?
A: 9200 nM

Q: For `CCC(CC)C(=O)Nc1ccc(N2CCN(C(c3ccccc3)c3nnc(C(C)C)o3)CC2)c(F)c1` (stereo not given), which IC50 [1] is on record?
A: 290 nM

Q: For `N=C(N)NCCCC(NC(=O)CC1(CC(=O)N2CCN(C3c4ccccc4NC(=O)c4ccccc43)CC2)CCCC1)C(=O)NCCn1c(=O)n(-c2ccccc2)n(-c2ccccc2)c1=O` (single isomer, unassigned), which Ki [14] is on record?
A: 323 nM

Q: And the Ki [15]?
A: 948 nM

Q: What about the Ki [16] of the same compound?
A: 360 nM

Q: With `CCC(CC)C(=O)Nc1ccc(N2CCN(C(c3ccccc3)C3CCOC3)CC2)c(F)c1` (stereo not given) as the compound, how does the IC50 [1] read?
A: 34 nM

Q: What about the pKb [3] of the same compound?
A: 7.2

Q: With `CCCCCCCCCCCCCCCC(=O)NCCCC[C@H](NC(=O)[C@H](CCCCN)NC(=O)[C@H](CCCCN)NC(=O)[C@H](Cc1ccc(O)cc1)NC(C)=O)C(=O)NCCCCCC(=O)N[C@@H](C)C(=O)N[C@@H](CCCNC(=N)N)C(=O)N[C@@H](Cc1cnc[nH]1)C(=O)N[C@@H](Cc1ccc(O)cc1)C(=O)N[C@H](C(=O)N[C@@H](CC(N)=O)C(=O)N[C@@H](CC(C)C)C(=O)N[C@H](C(=O)N[C@H](C(=O)N[C@@H](CCCNC(=N)N)C(=O)N[C@@H](CCC(N)=O)C(=O)N[C@@H](CCCNC(=N)N)C(=O)N[C@@H](Cc1ccc(O)cc1)C(N)=O)[C@@H](C)O)[C@@H](C)CC)[C@@H](C)CC` (Ac-YKKK(Palmitoyl)[Ahx]ARHYINLITRQRY-NH2) as the compound, how does the ED50 [17] read?
A: 1.1 mg/kg

Q: Which IC50 [1] does the source give for `CCN(CC)C(=O)C(c1ccccc1)N1CCN(c2ccc(NC(=O)c3c(C)cnn3CC)cc2F)CC1` (stereo not given) here?
A: 35 nM

Q: Which IC50 [1] does the source give for `CCC(CC)C(=O)Nc1ccc(N2CCN(C(c3ccccc3)c3ncno3)CC2)c(F)c1` (stereo not given) here?
A: 240 nM

Q: For `CCN(CC)C(=O)C(c1ccccc1)N1CCN(c2ccc(NC(=O)c3c(C)cnn3C(C)(C)C)cc2F)CC1` (stereo not given), which IC50 [1] is on record?
A: 300 nM

Q: With `CCN(CC)C(=O)C(c1ccccc1)C1CCN(c2ccc(NC(=O)C3CCOC3)cc2F)CC1` (stereo not given) as the compound, how does the IC50 [1] read?
A: 25 nM
